In brackets after ≈: the same amount, converted by molar mass. Read-outs that look alike come from different tables or passages of the source.
Tests used:
HIV-1 (IIIB) = test: microbe, parasite or virus in culture; type: cell-based
in vitro = conditions: human; for CC50 at 5 days: uninfected MT-4 cells
physchem = conditions: 23 °C, thermodynamic from solid; for solubility thermodynamic at 24 h: FaSSIF; for solubility thermodynamic: fassif
[1] = Human immunodeficiency virus 1, MT4, 120 h, HIV-1 (IIIB) replication in MT-4 cells, 5 days incubation, Cell Titer Glo, read-out: MT4 EC50
[2] = Human immunodeficiency virus 1, IIIB, MT4, 120 h, read-out: MT4 EC50 (nM)

| EC50 (HIV-1 (IIIB); [1]) | solubility thermodynamic at 24 h (physchem) | SMILES | CC50 at 5 days (in vitro) | EC50 (HIV-1 (IIIB); [2]) | CC50 (in vitro) | solubility thermodynamic (physchem) |
| --- | --- | --- | --- | --- | --- | --- |
| 63.8 nM | 4820 µg/mL (≈ 6.67 mM) | CC1=NO[C@@]2(CC[C@H](C)N3C[C@H]2n2cc(C(=O)NCc4ccc(F)cc4F)c(=O)c(OCOC(=O)N4CCC[C@H]4COP(=O)(O)O)c2C3=O)C1 [Compound 66, (((3′S,5S,7′R)-10′-((2,4-difluorobenzyl)carbamoyl)-3,3′-dimethyl-1′,11′-dioxo-1′,4′,5′,11′-tetrahydro-3′H,4H,7′H-spiro[isoxazole-5,6′-[2,7]methanopyrido[1,2-a][1,4]diazonin]-12′-yl)oxy)methyl (2S)-2-((phosphonooxy)methyl)pyrrolidine-1-carboxylate] | ≥ 50000 nM | – | – | – |
| – | – | CC1=NO[C@@]2(CC[C@H](C)N3C[C@H]2n2cc(C(=O)NCc4ccc(F)cc4F)c(=O)c(OCOC(=O)N4CCOC[C@@H]4COP(=O)(O)O)c2C3=O)C1 [Compound 63, (((3′S,5S,7′R)-10′-((2,4-difluorobenzyl)carbamoyl)-3,3′-dimethyl-1′,11′-dioxo-1′,4′,5′,11′-tetrahydro-3′H,4H,7′H-spiro[isoxazole-5,6′-[2,7]methanopyrido[1,2-a][1,4]diazonin]-12′-yl)oxy)methyl (3R)-3-((phosphonooxy)methyl)morpholine-4-carboxylate] | – | 18.7 nM | ≥ 50000 nM | 5000 µg/mL (≈ 6.76 mM) |
| 1.8 nM | 4440 µg/mL (≈ 6.01 mM) | CC1=NO[C@@]2(CC[C@H](C)N3C[C@H]2n2cc(C(=O)NCc4ccc(F)cc4F)c(=O)c(OCOC(=O)O[C@H]4CCCC[C@@H]4OP(=O)(O)O)c2C3=O)C1 [Compound 44, (((3′S,5S,7′R)-10′-((2,4-difluorobenzyl)carbamoyl)-3,3′-dimethyl-1′,11′-dioxo-1′,4′,5′,11′-tetrahydro-3′H,4H,7′H-spiro[isoxazole-5,6′-[2,7]methanopyrido[1,2-a][1,4]diazonin]-12′-yl)oxy)methyl ((1S,2S)-2-(phosphonooxy)cyclohexyl) carbonate] | 13500 nM | – | – | – |
| 9.29 nM | 5280 µg/mL (≈ 7.29 mM) | CC1=NO[C@@]2(CC[C@H](C)N3C[C@H]2n2cc(C(=O)NCc4ccc(F)cc4F)c(=O)c(OCOC(=O)O[C@@H]4CC[C@H](OP(=O)(O)O)C4)c2C3=O)C1 [Compound 54, (((3′S,5S,7′R)-10′-((2,4-difluorobenzyl)carbamoyl)-3,3′-dimethyl-1′11′-dioxo-1′,4′,5′,11′-tetrahydro-3′H,4H,7′H-spiro[isoxazole-5,6′-[2,7]methanopyrido[1,2-a][1,4]diazonin]-12′-yl)oxy)methyl ((cis)-3-(phosphonooxy)cyclopentyl) carbonate] | ≥ 50000 nM | – | – | – |
| – | – | CC1=NO[C@@]2(CC[C@H](C)N3C[C@H]2n2cc(C(=O)NCc4ccc(F)cc4F)c(=O)c(OCOC(=O)CC(C)(C)c4c(CC(=O)O)cc(C)cc4OP(=O)(O)O)c2C3=O)C1 [Compound 20, 2-(2-(4-((((3′S,5S,7′R)-10′-((2,4-difluorobenzyl)carbamoyl)-3,3′-dimethyl-1′,11′-dioxo-1′,4′,5′,11′-tetrahydro-3′H,4H,7′H-spiro[isoxazole-5,6′-[2,7]methanopyrido[1,2-a][1,4]diazonin]-12′-yl)oxy)methoxy)-2-methyl-4-oxobutan-2-yl)-5-methyl-3-(phosphonooxy)phenyl)acetic acid] | – | 1.76 nM | 12500 nM | 4410 µg/mL (≈ 5.22 mM) |
| 1.4 nM | 3240 µg/mL (≈ 4.3 mM) | CNCC(=O)OCc1cccnc1N(C)C(=O)OCOc1c2n(cc(C(=O)NCc3ccc(F)cc3F)c1=O)[C@@H]1CN(C2=O)[C@@H](C)CC[C@]12CC(C)=NO2 [Compound 9, (2-((((((3′S,5S,7′R)-10′-((2,4-difluorobenzyl)carbamoyl)-3,3′-dimethyl-1′11′-dioxo-1′,4′,5′,11′-tetrahydro-3′H,4H,7′H-spiro[isoxazole-5,6′-[2,7]methanopyrido[1,2-a][1,4]diazonin]-12′-yl)oxy)methoxy)carbonyl)(methyl)amino)pyridin-3-yl)methyl methylglycinate] | 10500 nM | – | – | – |
| – | – | CC1=NO[C@@]2(CC[C@H](C)N3C[C@H]2n2cc(C(=O)NCc4ccc(F)cc4F)c(=O)c(OCOC(=O)N(C)Cc4ccccc4OP(=O)(O)O)c2C3=O)C1 [Compound 37, (((3′S,5S,7′R)-10′-((2,4-difluorobenzyl)carbamoyl)-3,3′-dimethyl-1′,11′-dioxo-1′,4′,5′,11′-tetrahydro-3′H,4H,7′H-spiro[isoxazole-5,6′-[2,7]methanopyrido[1,2-a][1,4]diazonin]-12′-yl)oxy)methyl methyl(2-(phosphonooxy)benzyl)carbamate] | – | 13.3 nM | 33500 nM | 4500 µg/mL (≈ 5.92 mM) |
| – | – | COC(=O)CN(Cc1cccnc1N(C)C(=O)Oc1c2n(cc(C(=O)NCc3ccc(F)cc3F)c1=O)[C@@H]1CN(C2=O)[C@@H](C)CC[C@]12CC(C)=NO2)C(=O)OCOP(=O)(O)O [Compound 34, methyl N-((2-(((((3′S,5S,7′R)-10′-((2,4-difluorobenzyl)carbamoyl)-3,3′-dimethyl-1′,11′-dioxo-1′,4′,5′,11′-tetrahydro-3′H,4H,7′H-spiro[isoxazole-5,6′-[2,7]methanopyrido[1,2-a][1,4]diazonin]-12′-yl)oxy)carbonyl)(methyl)amino)pyridin-3-yl)methyl)-N-(((phosphonooxy)methoxy)carbonyl)glycinate] | – | 1.4 nM | 12800 nM | 4920 µg/mL (≈ 5.62 mM) |
| 2.94 nM | 64.5 µg/mL (≈ 0.079 mM) | CCCCCCCCCCCCCC(=O)Oc1ccc(C(=O)Oc2c3n(cc(C(=O)NCc4ccc(F)cc4F)c2=O)[C@@H]2CN(C3=O)[C@@H](C)CC[C@]23CC(C)=NO3)cc1 [Compound 100, (3′S,5S,7′R)-10′-((2,4-difluorobenzyl)carbamoyl)-3,3′-dimethyl-1′,11′-dioxo-1′,4′,5′,11′-tetrahydro-3′H,4H,7′H-spiro[isoxazole-5,6′-[2,7]methanopyrido[1,2-a][1,4]diazonin]-12′-yl 4-(tetradecanoyloxy)benzoate] | 12800 nM | – | – | – |
| 1.25 nM | 5090 µg/mL (≈ 6.28 mM) | CC1=NO[C@@]2(CC[C@H](C)N3C[C@H]2n2cc(C(=O)NCc4ccc(F)cc4F)c(=O)c(OCOC(=O)N(C)C[C@@H]4CCCN4C(=O)OCOP(=O)(O)O)c2C3=O)C1 [Compound 14, (phosphonooxy)methyl (2S)-2-(((((((3′S,5S,7′R)-10′-((2,4-difluorobenzyl)carbamoyl)-3,3′-dimethyl-1′,11′-dioxo-1′,4′,5′,11′-tetrahydro-3′H,4H,7′H-spiro[isoxazole-5,6′-[2,7]methanopyrido[1,2-a][1,4]diazonin]-12′-yl)oxy)methoxy)carbonyl)(methyl)amino)methyl)pyrrolidine-1-carboxylate] | 16800 nM | – | – | – |
| – | – | CC1=NO[C@@]2(CC[C@H](C)N3C[C@H]2n2cc(C(=O)NCc4ccc(F)cc4F)c(=O)c(OC(=O)N(C)c4ncc(C(=O)O)cc4CN(CC(=O)O)C(=O)OCOP(=O)(O)O)c2C3=O)C1 [Compound 8, 5-(((carboxymethyl)(((phosphonooxy)methoxy)carbonyl)amino)methyl)-6-(((((3′S,5S,7′R)-10′-((2,4-difluorobenzyl)carbamoyl)-3,3′-dimethyl-1′,11′-dioxo-1′,4′,5′,11′-tetrahydro-3′H,4H,7′H-spiro[isoxazole-5,6′-[2,7]methanopyrido[1,2-a][1,4]diazonin]-12′-yl)oxy)carbonyl)(methyl)amino)nicotinic acid] | – | 0.982 nM | 10400 nM | 4800 µg/mL (≈ 5.3 mM) |
| – | – | CC1=NO[C@@]2(CC[C@H](C)N3C[C@H]2n2cc(C(=O)NCc4ccc(F)cc4F)c(=O)c(OCOC(=O)CC(C)(C)c4c(C)cc(C)cc4OP(=O)(O)O)c2C3=O)C1 [Compound 27] | – | 2.75 nM | 16900 nM | 2260 µg/mL (≈ 2.82 mM) |
| 4.96 nM | 4680 µg/mL (≈ 6.22 mM) | CC1=NO[C@@]2(CC[C@H](C)N3C[C@H]2n2cc(C(=O)NCc4ccc(F)cc4F)c(=O)c(OCOC(=O)O[C@H]4CCCC[C@H]4COP(=O)(O)O)c2C3=O)C1 [Compound 53, (((3′S,5S,7′R)-10′-((2,4-difluorobenzyl)carbamoyl)-3,3′-dimethyl-1′,11′-dioxo-1′,4′,5′,11′-tetrahydro-3′H,4H,7′H-spiro[isoxazole-5,6′-[2,7]methanopyrido[1,2-a][1,4]diazonin]-12′-yl)oxy)methyl ((1S,2S)-2-((phosphonooxy)methyl)cyclohexyl) carbonate] | 35700 nM | – | – | – |
| 2.23 nM | 4520 µg/mL (≈ 6.11 mM) | CC1=NO[C@@]2(CC[C@H](C)N3C[C@H]2n2cc(C(=O)NCc4ccc(F)cc4F)c(=O)c(OCOC(=O)[C@H]4[C@@H](COP(=O)(O)O)[C@@H]4C(=O)O)c2C3=O)C1 [Compound 79, (1S,2S,3S)-2-(((((3′S,5S,7′R)-10′-((2,4-difluorobenzyl)carbamoyl)-3,3′-dimethyl-1′,11′-dioxo-1′,4′,5′,11′-tetrahydro-3′H,4H,7′H-spiro[isoxazole-5,6′-[2,7]methanopyrido[1,2-a][1,4]diazonin]-12′-yl)oxy)methoxy)carbonyl)-3-((phosphonooxy)methyl)cyclopropane-1-carboxylic acid] | 12500 nM | – | – | – |

| SMILES | EC50 (HIV-1 (IIIB); [1]) | solubility thermodynamic at 24 h (physchem) | CC50 at 5 days (in vitro) | EC50 (HIV-1 (IIIB); [2]) | CC50 (in vitro) | solubility thermodynamic (physchem) |
| --- | --- | --- | --- | --- | --- | --- |
| CCCCCCCCCCCCCC(=O)Nc1ccc(CC(=O)Oc2c3n(cc(C(=O)NCc4ccc(F)cc4F)c2=O)[C@@H]2CN(C3=O)[C@@H](C)CC[C@]23CC(OC)=NO3)cc1 [Compound 93, (3′S,5S,7′R)-10′-((2,4-difluorobenzyl)carbamoyl)-3-methoxy-3′-methyl-1′,11′-dioxo-1′,4′,5′,11′-tetrahydro-3′H,4H,7′H-spiro[isoxazole-5,6′-[2,7]methanopyrido[1,2-a][1,4]diazonin]-12′-yl 2-(4-tetradecanamidophenyl)acetate] | 1.36 nM | 6 µg/mL (≈ 0.00709 mM) | ≥ 50000 nM | – | – | – |

From patent publication US20250127801A1, “BRIDGED TRICYCLIC CARBAMOYLPYRIDONE COMPOUNDS AND USES THEREOF” (priority 2023, published 2025)
